Experimental data: patent US7897730B2, “TRAIL receptor-binding agents and uses of the same” (Beijing Cotimes Biotech Ltd., priority 2006, dated 2011)

Experiments:
[1] = system: binding of CTB003 to TRAIL-R2; assay: Competitive inhibition ELISA with polypeptides; parameters: species or system human; details: 1 μg/ml CTB003, various concentrations of peptide
Protocol: (§1) ELISA plate was coated with 1 μg/ml TRAIL-R2-Fc fusion protein in PBS at 4° C. overnight. After washing three times with PBS, the plate was blocked with 3% BSA PBS at room temperature for one hour. […] The unbound antibodies were removed by washing three time with PBS, and then HRP-conjugated goat anti-mouse IgG1 was added at 37° C. for 30 minutes. After washing three times with PBS, TMB substrate buffer was added for 10 minutes and then the reaction was stopped by adding 2N H2SO4. The values of optical density were recorded in a ELISA plate reader with a dual wavelength at 450 nm/650 nm.
as §1, with “μg/ml TRAIL-R1 or” for “μg/ml”

[2] = system: human colon cancer cells (SW1116); assay: ATPLite cell viability, CTB003 with chemotherapeutic drug or mono-specific antibody; assay type: cell-based; details: for effect on CTB003 killing: combination with CTB003
Protocol: (§2) The cell lines selected for study included: human breast cancer cells (BT474), human colon cancer cells (SW620), human lung cancer cells (A437), human colon cancer cells (SW1116), and human pancreatic cancer cells (Panc 1). All cells were purchased from ATCC.
(§3) After culture at 37° C. overnight, cell viability was determined using the ATPLite kit according to the manufacturer's instructions (Packard Instruments, Meriden, Conn.): add 50 μl of cell lysis buffer and then 50 μl of substrate buffer. The reaction was counted in a luminescent reader. Cell viability was calculated as (cpm of treated cells/cmp of control cells)×100%.
as §3, with “for 16 h,” for “overnight,”

[3] = system: Human T leukemia cells (Jurkat); assay: Flow cytometry analysis of cell surface binding; details: 10 μg/ml antibody; cells express TRAIL-R2 but not TRAIL-R1
Excerpt: (§4) Tumor cells may express differential levels of cell surface of TRAIL-R1 and TRAIL-R2, therefore a monospecific antibody directed against either TRAIL-R1 or TRAIL-R2 may not able to bind to and induce apoptosis of all tumor cells when administered alone. […] Human T leukemia cells (Jurkat) only express TRAIL-R2 but not TRAIL-R1. Human B lymphoma cells (Ramos) express high levels of TRAIL-R1 but low levels of TRAIL-R2.
(§5) 1×10^6 single cells were collected from cell culture medium and washed twice with FACS buffer (PBS containing 5% FCS, 0.1% NaN3, pH7.4). […] After washing twice with 1 ml FACS buffer, cells were further incubated with PE-conjugated goat anti-mouse IgG1 antibody on ice for 30 minutes. After washing twice with 1 ml FACS buffer, cells were suspended in 0.5 ml FACS buffer and 10,000 viable cells were analyzed by FACScan flow cytometer.

[4] = system: Human B lymphoma cells (Ramos); assay: Flow cytometry analysis of cell surface binding; details: 10 μg/ml antibody; cells express high TRAIL-R1, low TRAIL-R2
Excerpt: as §4, §5

[5] = system: Human B lymphoma cells (Ramos); assay: ATPLite cell viability, apoptosis-inducing activity; assay type: cell-based; details: 10-1000 ng/ml antibody, 16 h
Protocol: as §4
After culture at 37° C. for 16 h, the cell viability of each culture was determined using the ATPLite kit according to the manufacturer's instructions (Packard Instruments, Meriden, Conn.): add 50 μl of cell lysis buffer and then 50 μl of substrate buffer. The reaction was counted in a luminescent reader. Cell viability was calculated as (cpm of treated cells/cmp of control cells)×100%.

[6] = system: MDA231 human breast cancer cell line; assay: Xenograft model, tumor size; assay type: in vivo, Balb/c nude mice
Excerpt: Human cancer cell lines that were used for generation of murine xenograft models of human cancer are: a) MDA231 human breast cancer cell line; b) 7402 human liver cancer cell line; c) Colo205 human colon cancer cell lines; and d) MIAcapa human pancreatic cancer cell line. All cells were purchased from ATCC, and cultured in DMEM supplemented with 10% FCS.
Six (6) to 8 week-old Balb/c nude mice were inoculated subcutaneously with 1×10^7 human cancer cells. At day 7-14 after tumor inoculation depending on inoculated tumor cell lines, over 90% mice developed viable tumor mass. The tumor-bearing mice were randomly divided into two groups: one was untreated control group, and another was CTB003 treated group. Human cancer tumor growth was evaluated by sizes of tumor. After inoculation, tumor sizes were measured weekly.
The treatment was repeated six times within three weeks.
(§6) Six (6) to 8 week-old Balb/c nude mice were inoculated subcutaneously with 1×10^7 human MDA231 breast cancer cells. […] Human breast cancer tumor growth was evaluated by measuring the size of tumor. After inoculation the tumor sizes were measured in mice weekly. […]
as §6

[7] = system: binding of CTB003 to TRAIL-R1; assay: Competitive inhibition ELISA with polypeptides; parameters: species or system human; details: 1 μg/ml CTB003, various concentrations of peptide
Protocol: as §1, with “μg/ml TRAIL-R1 or” for “μg/ml”

[8] = system: binding of humanized chimeric CTB003 to TRAIL-R2; assay: Competitive inhibition ELISA with polypeptides; parameters: species or system human; details: various concentrations of peptide
Protocol: as §1, with “μg/ml TRAIL-R1 or” for “μg/ml”

[9] = system: binding of humanized chimeric CTB003 to TRAIL-R1; assay: Competitive inhibition ELISA with polypeptides; parameters: species or system human; details: various concentrations of peptide
Protocol: as §1, with “μg/ml TRAIL-R1 or” for “μg/ml”

[10] = system: human pancreatic cancer cells (Panc-1); assay: ATPLite cell viability, CTB003 with chemotherapeutic drug; assay type: cell-based; details: combination with CTB003
Protocol: as §2, §3

[11] = system: human lung cancer cells (A437); assay: as above; assay type: cell-based; details: combination with CTB003
Protocol: as §2, §3

[12] = system: human breast cancer cells (BT474); assay: as above; assay type: cell-based; details: combination with CTB003
Protocol: as §2, §3

[13] = system: human colon cancer cells (SW620); assay: as above; assay type: cell-based; details: combination with CTB003
Protocol: as §2, §3

Chain of binding of CTB003 to TRAIL-R2 (as listed by the source): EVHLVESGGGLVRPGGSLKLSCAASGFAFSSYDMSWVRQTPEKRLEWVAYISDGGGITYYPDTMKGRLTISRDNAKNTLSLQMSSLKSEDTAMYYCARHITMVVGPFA
Chain of binding of CTB003 to TRAIL-R2 (as listed by the source): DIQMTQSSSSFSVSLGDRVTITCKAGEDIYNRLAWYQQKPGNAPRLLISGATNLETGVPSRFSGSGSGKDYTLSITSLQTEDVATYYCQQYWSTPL
Chain of binding of CTB003 to TRAIL-R2 (O14763 56-210 partner limits assumed): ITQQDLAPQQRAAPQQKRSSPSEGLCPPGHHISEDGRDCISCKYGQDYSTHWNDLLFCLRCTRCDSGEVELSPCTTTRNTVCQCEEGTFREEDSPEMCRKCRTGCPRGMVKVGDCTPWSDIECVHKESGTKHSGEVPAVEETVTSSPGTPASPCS
Chain of binding of humanized chimeric CTB003 to TRAIL-R2 (as listed by the source, change not shown): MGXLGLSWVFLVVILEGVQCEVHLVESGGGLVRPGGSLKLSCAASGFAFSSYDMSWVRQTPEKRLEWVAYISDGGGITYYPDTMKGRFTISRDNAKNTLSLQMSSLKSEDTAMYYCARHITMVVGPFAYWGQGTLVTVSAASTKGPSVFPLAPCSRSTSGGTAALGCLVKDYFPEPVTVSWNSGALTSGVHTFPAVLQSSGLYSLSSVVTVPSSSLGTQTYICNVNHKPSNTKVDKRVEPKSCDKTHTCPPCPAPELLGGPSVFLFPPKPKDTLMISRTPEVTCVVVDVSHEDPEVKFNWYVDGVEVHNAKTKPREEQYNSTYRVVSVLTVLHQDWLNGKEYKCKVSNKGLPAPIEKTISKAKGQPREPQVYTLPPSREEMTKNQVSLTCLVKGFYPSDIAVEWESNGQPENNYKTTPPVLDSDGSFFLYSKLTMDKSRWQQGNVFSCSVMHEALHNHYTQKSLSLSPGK
Chain of binding of humanized chimeric CTB003 to TRAIL-R2 (as listed by the source, change not shown): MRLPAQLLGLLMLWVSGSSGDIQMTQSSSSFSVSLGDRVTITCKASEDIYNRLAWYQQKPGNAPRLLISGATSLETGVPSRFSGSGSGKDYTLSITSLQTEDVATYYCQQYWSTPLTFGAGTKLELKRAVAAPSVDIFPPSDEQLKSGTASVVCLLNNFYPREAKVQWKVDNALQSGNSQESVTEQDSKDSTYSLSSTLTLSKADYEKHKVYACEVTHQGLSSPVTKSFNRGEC
Chain of binding of humanized chimeric CTB003 to TRAIL-R2 (O14763 56-210 partner limits assumed): as the sequence (O14763 56-210 partner limits assumed) above
Chain of binding of humanized chimeric CTB003 to TRAIL-R1 (O00220 24-239 partner limits assumed): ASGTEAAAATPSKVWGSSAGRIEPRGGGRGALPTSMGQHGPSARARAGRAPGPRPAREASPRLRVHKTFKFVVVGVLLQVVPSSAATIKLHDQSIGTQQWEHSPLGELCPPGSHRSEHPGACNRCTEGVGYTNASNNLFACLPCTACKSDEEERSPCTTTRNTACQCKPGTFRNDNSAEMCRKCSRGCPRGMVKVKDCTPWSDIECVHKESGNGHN
Chain of binding of CTB003 to TRAIL-R1 (O00220 24-239 partner limits assumed): as above

Compound: MVKVGDCTPWSDIECVHKESGTKHSGEAPA [peptide G, TRAIL-R2 (aa164-aa193), reference compound]
- inhibition of antibody binding [1]: inhibited the binding of CTB003 to TRAIL-R2 in a dose-dependent manner

Compound: CTB006: Murine monospecific antibody directed to TRAIL-R2 receptor; hybridoma CGMCC 1691
- effect on CTB003 killing [2]: synergistically enhanced CTB003 killing in a dose-dependent fashion
- cell killing by antibody alone ([2]; single antibody): did not induce cell killing
- cell surface staining [3]: positively stained
- cell surface staining [4]: only weakly stained
- susceptibility to antibody-induced apoptosis [5]: not susceptible
- effect on tumor ([6]; CTB006 alone, 100 μg i.p. twice a week for three times): tumor inhibition was observed but tumor size reduction was not remarkable

Compound: VGDCTPWSDIECVHKE [peptide H]
- inhibition of antibody binding [7]: inhibited the binding of CTB003 to TRAIL-R1 in a dose-dependent manner
- inhibition of antibody binding [8]: inhibited the binding of humanized chimeric CTB003 to TRAIL-R2 in a dose-dependent manner
- inhibition of antibody binding [9]: inhibited the binding of humanized chimeric CTB003 to TRAIL-R1 in a dose-dependent manner
- inhibition of antibody binding [1]: inhibited the binding of CTB003 to TRAIL-R2 in a dose-dependent manner

Compound: CCc1c2c(nc3ccc(OC(=O)N4CCC(N5CCCCC5)CC4)cc13)-c1cc3c(c(=O)n1C2)COC(=O)[C@]3(O)CC [CTP-11, reference compound]
- effect on CTB003 killing [2]: synergistically enhanced CTB003 killing in a dose-dependent fashion

Compound: Nc1ccn([C@@H]2O[C@H](CO)[C@@H](O)C2(F)F)c(=O)n1 [Gemcitabine, reference compound]
- effect on CTB003 killing [10]: synergistically enhanced CTB003 killing in a dose-dependent fashion

Compound: N.N.[Cl][Pt][Cl] [Cisplatin, reference compound]
- effect on CTB003 killing [11]: synergistically enhanced CTB003 killing in a dose-dependent fashion

Compound: VKDCTPWSDIECVHKE [peptide I]
- inhibition of antibody binding [7]: inhibited the binding of CTB003 to TRAIL-R1 in a dose-dependent manner
- inhibition of antibody binding [8]: inhibited the binding of humanized chimeric CTB003 to TRAIL-R2 in a dose-dependent manner
- inhibition of antibody binding [9]: inhibited the binding of humanized chimeric CTB003 to TRAIL-R1 in a dose-dependent manner
- inhibition of antibody binding [1]: inhibited the binding of CTB003 to TRAIL-R2 in a dose-dependent manner

Compound: RKCRTGCPRGMVKVGDCTPWSDIECVHKES [peptide F, TRAIL-R2 (aa154-aa183), reference compound]
- inhibition of antibody binding [1]: inhibited the binding of CTB003 to TRAIL-R2 in a dose-dependent manner

Compound: COc1cccc2c1C(=O)c1c(O)c3c(c(O)c1C2=O)C[C@@](O)(C(=O)CO)C[C@@H]3O[C@H]1C[C@H](N)[C@H](O)[C@H](C)O1 [Adriamycin, reference compound]
- effect on tumor ([6]; Adriamycin alone, 100 μg per dose i.p. twice a week for three times): tumor inhibition was observed but tumor size reduction was not remarkable
- effect on CTB003 killing [12]: synergistically enhanced CTB003 killing in a dose-dependent fashion

Compound: CC(=O)O[C@H]1C(=O)[C@@]2(C)[C@H]([C@H](OC(=O)c3ccccc3)[C@]3(O)C[C@H](OC(=O)[C@H](O)[C@@H](NC(=O)c4ccccc4)c4ccccc4)C(C)=C1C3(C)C)[C@]1(OC(C)=O)CO[C@@H]1C[C@@H]2O [Taxol]
- effect on CTB003 killing [13]: synergistically enhanced CTB003 killing in a dose-dependent fashion
